Data taken from the NIST ThermoML archive (doi:10.1016/j.jct.2010.04.013).

Assay: mn = molality of the nth substance listed, in mol/kg
Conditions: 101 kPa, Liquid; for mass density: Vibrating tube method; for speed of sound: Pulse-echo method

[Ba+2].[O-][Cl+3]([O-])([O-])[O-].[O-][Cl+3]([O-])([O-])[O-] [barium perchlorate] + CO
Conditions | mass density, 283.15 K [kg/m3] | mass density, 288.15 K [kg/m3] | mass density, 293.15 K [kg/m3] | mass density, 298.15 K [kg/m3] | mass density, 303.15 K [kg/m3] | mass density, 308.15 K [kg/m3] | mass density, 313.15 K [kg/m3] | speed of sound, 298.15 K [m/s]
m1 = 0.04405 | 811.658 | 806.964 | 802.257 | 797.534 | 792.793 | 788.031 | 783.24 | 1104.8
m1 = 0.05789 | 815.181 | 810.483 | 805.768 | 801.038 | 796.29 | 791.514 | 786.709 | 1105.8
m1 = 0.07152 | 818.62 | 813.919 | 809.196 | 804.461 | 799.707 | 794.928 | 790.115 | 1106.8
m1 = 0.08565 | 822.272 | 817.565 | 812.834 | 808.092 | 803.33 | 798.541 | 793.738 | –
m1 = 0.09942 | 825.796 | 821.081 | 816.346 | 811.597 | 806.83 | 802.029 | 797.22 | 1108.7
m1 = 0.1123 | 829.125 | 824.405 | 819.663 | 814.91 | 810.139 | 805.341 | 800.51 | 1109.7
m1 = 0.1401 | 836.397 | 831.665 | 826.908 | 822.143 | 817.357 | 812.546 | 807.7 | 1111.7
m1 = 0.1665 | 843.399 | 838.652 | 833.885 | 829.105 | 824.3 | 819.488 | 814.642 | 1113.2
m1 = 0.1922 | 850.26 | 845.49 | 840.721 | 835.928 | 831.119 | 826.278 | 821.422 | 1115.2
m1 = 0.2169 | 856.95 | 852.176 | 847.385 | 842.583 | 837.763 | 832.919 | 828.046 | 1116.9
m1 = 0.2417 | 863.79 | 859.009 | 854.206 | 849.387 | 844.546 | 839.692 | 834.813 | 1118.6

[Ba+2].[O-][Cl+3]([O-])([O-])[O-].[O-][Cl+3]([O-])([O-])[O-] [barium perchlorate] + C[S+](C)[O-]
Conditions | mass density, 293.15 K [kg/m3] | mass density, 298.15 K [kg/m3] | mass density, 303.15 K [kg/m3] | mass density, 313.15 K [kg/m3] | mass density, 323.15 K [kg/m3] | mass density, 333.15 K [kg/m3] | speed of sound, 298.15 K [m/s]
m1 = 0.03102 | 1108.57 | 1103.55 | 1098.53 | 1088.51 | 1078.49 | 1068.47 | –
m1 = 0.04247 | 1111.68 | 1106.66 | 1101.64 | 1091.63 | 1081.62 | 1071.61 | 1485.2
m1 = 0.05458 | 1114.98 | 1109.97 | 1104.95 | 1094.94 | 1084.94 | 1074.94 | 1485.5
m1 = 0.06931 | 1119.03 | 1114.02 | 1109 | 1099 | 1089.01 | 1079.01 | 1486
m1 = 0.08432 | 1123.18 | 1118.17 | 1113.16 | 1103.17 | 1093.18 | 1083.2 | 1486.3
m1 = 0.1063 | 1129.31 | 1124.31 | 1119.3 | 1109.32 | 1099.34 | 1089.37 | 1486.8
m1 = 0.1359 | 1137.67 | 1132.66 | 1127.67 | 1117.69 | 1107.73 | 1097.78 | 1487.8
m1 = 0.1651 | 1146.06 | 1141.06 | 1136.07 | 1126.1 | 1116.15 | 1106.21 | 1488.5
m1 = 0.191 | 1153.55 | 1148.55 | 1143.57 | 1133.61 | 1123.67 | 1113.74 | 1489.3
m1 = 0.222 | 1162.7 | 1157.71 | 1152.72 | 1142.77 | 1132.84 | 1122.92 | 1490.4
m1 = 0.25 | 1171.03 | 1166.04 | 1161.06 | 1151.11 | 1141.21 | 1131.31 | 1491.5
